# Where “and” joins values, the source holds several entries; their conditions need not be identical. Equal entries are not always repeated. Where two headings read alike, the source gives them in different places.
# Experiments:
# [1] = tested on: debrisoquin hydroxylase; test: Urinary DM/DR ratio after oral dextromethorphan without and with quinidine (Example 1); type: in vivo, human; details: ALS patients
# Method: Since the research that led to this invention was done by a neurologist who was initially interested in finding out whether DM might be able to retard the progress of ALS, the initial studies were done on patients suffering from ALS, most of whom are adults more than 50 years old.
# Six patients suffering from ALS were administered orally a single 60 mg dextromethorphan dose. Several hours later, a urine sample was collected, and the urine concentrations of dextromethorphan (DM) and dextrorphan (DR) were measured as described below to determine a DM/DR ratio. […] In a different week, 60 mg of DM and 150 mg of quinidine were orally administered to the same patients, and urinary DM and DR levels and DM/DR ratios were determined again.
# DM and DR urinary levels without quinidine were determined by adding […] of thebaine as an internal standard to 1 mL of urine. To this was added 2000 units of beta-glucuronidase in 1 mL of acetate buffer (0.1M, pH 5.0). The mixture was incubated for 18 hours at 37° C. and then extracted by adding 1 mL of phosphate buffer (pH 12, 0.10M) and 7 mL of n-butanol/hexane (10:90 v/v). After mixing and centrifugation, the organic layer was transferred to a clean tube and acidified with 400 uL of 0.01 N HCL. 20 microliters (uL) of aqueous phase was injected into a high performance liquid chromatography (HPLC) system. The HPLC used a phenyl column equilibrated with a mobile phase of acetonitrile:water (51:49, v/v) containing 10 mM KHPO4, 10 mM hexane sulfonic acid, pH 4.0 (flow rate 1.2 mL/min). Detection of thebaine, dextromethorphan and dextrorphan was achieved by fluorescence (Kratos FS-980 Fluorometer) with an excitation wavelength of 228 nm and no emission cutoff filter.
# A gas chromatograph/mass spectroscopy (gc/ms) assay was employed for determining dextromethorphan and dextrorphan levels in the presence of quinidine. Briefly, 0.5 ml urine samples were spiked with 500 nanograms (ng) of dimethacrine. The urine pH was adjusted to 5.0 with 0.1M acetate buffer (usually about 1.0 ml), and beta-glucuronidase was added (2000 units/ml urine). […]
# [2] = Plasma concentration of DM 10-12 hours after oral dosing, without and with quinidine (Examples 2 and 3); type: in vivo, human; details: 10-12 hours, one value per patient
# Method: Plasma Concentrations of DM
# Five patients were orally administered 120 mg of DM, with no co-administration of quinidine. Between 10 and 12 hours later, blood was sampled, blood plasma was isolated by centrifugation, and the plasma was analyzed to determine the DM concentration using the thebaine/HPLC method.
# During a different week, the same patients were orally administered 60 mg of DM (half the control dosage) and 150 mg of quinidine. Between 10 and 12 hours later, blood was sampled and the plasma was analyzed for DM using thebaine/HPLC.
# Additional studies were undertaken using a range of dosages of DM to establish a dose-response curve that correlates the quantity of DM orally administered to a patient with blood plasma concentrations 10 to 12 hours later (determined as described in Example 2). All patients received 150 mg of quinidine daily. The results of those studies are shown in graphical form in FIG. 2, with mean values shown as open squares and standard deviation ranges shown by vertical bars. The ascending line through the median values is a linear approximation; a curve based on more extensive data would probably show a horizontal asymptote.
# [3] = tested on: dermatitis; test: Suppression of dermatitis (lichen planus; severe intermittent dermatitis) in patients; type: in vivo, human; details: patients treated with DM alone
# Description: Suppression of Dermatitis
# During an initial examination, the Applicant discovered that patient two, a Caucasion person who was suffering from ALS, suffered from a severe dermatologic condition involving lesions which appear in relatively small purplish patches ("polygonal papules"). Their condition had recently been diagnosed as lichen planus. The etiology is unknown, although a variety of drugs reportedly can aggravate this condition. The patient reported that the lesions were severely itchy, and they had been suffering from it for roughly ten years. They had been prescribed a number of drugs (including various steroids such as prednisone) in an effort to control the itching; the most recent prescription was "Doxepin," a tricyclic antidepressant. None of those agents offered much relief.
# The patient began an initial treatment of quinidine alone (150 mg/day) for a week.
# The specialist carried out a preliminary test involving DM and quinidine on a person who suffered from severe but intermittent dermatitis.
# [4] = tested on: ALS patients; test: Tolerance and side effects in ALS patients and control subjects; type: in vivo, human; details: ALS patients and controls; drug(s) as labelled
# Description: (§1) All patients who became involved in the study initially received DM and/or quinidine alone, to ensure that these drugs would not adversely affect them. The drugs were coadministered only after a tolerance and/or dosage range for one drug had been established for a patient.
# However, quinidine is not pharmaceutically acceptable by all patients.
# [5] = tested on: emotional lability; test: Suppression of emotional lability in ALS patients; type: in vivo, human
# Description: Emotional lability is a complex problem in which patients suffering from neurological damage (typically due to a stroke or head injury or a neurologic disease such as ALS or Alzheimer's disease) become unable to control spasmodic emotional outbursts such as explosive laughing or uncontrollable weeping. This discovery involving emotional lability is discussed in U.S. Pat. No. 5,206,248, which was also invented by the Applicant; the contents of that patent are incorporated by reference.
# as §1
# [6] = tested on: ALS; test: Effect on progress of ALS; type: in vivo, human; details: loss of strength, slurring of speech, other muscular symptoms
# Description: As mentioned above, DM is being studied as a possible treatment for neurodegenerative diseases such as Parkinson's disease, Alzheimer's disease, and ALS. Accordingly, the Applicant, a neurologist who specializes in working with ALS patients, undertook a study of DM to determine whether it might be able to retard the progress of ALS.
# However, during the course of that study, other important findings emerged, as discussed below.
# [7] = tested on: sigma receptors; details: reportedly; cited from earlier work
# [8] = tested on: N-methyl-D-aspartate (NMDA) receptors; details: reportedly; cited from earlier work
# [9] = tested on: neuronal calcium channels; details: reportedly, Carpenter et al 1988, cited from earlier work
# [10] = most people; cited from earlier work
# [11] = tested on: ALS patients; details: DM up to about 300 mg/day or higher; quinidine in prolonged QT interval; cited from earlier work
# [12] = tested on: debrisoquin hydroxylase; test: Urinary DM/DR ratio with other antioxidants in specific patients (Example 5); details: urine, HPLC; preliminary; one value per patient
# Description: The second method involves sampling body fluids to compare the concentrations of DM and its primary metabolite, dextrorphan (DR). Although blood concentrations can be directly evaluated by drawing blood samples if desired, an easier and painless approach is to analyze urine samples. Blood or urine samples can be processed using methods such as high performance liquid chromatography (HPLC), as described in Example 5. […] The height of each peak, or the area under each peak, will indicate the quantity of each compound in the blood or urine sample. The heights of the DM and DR peaks are then divided, to determine the DM/DR ratio. The ratio which occurs after administration of a candidate antioxidant drug is compared to the DM/DR ratio in the same patient under control conditions (i.e., before administration of any antioxidant).
# Preliminary Analysis of Other Antioxidants
# To further evaluate that possibility, the Applicant arranged for chemical analyses of urine samples, using HPLC, in the labs of an independent investigator.
smiles,measurement,setting,value
"COc1ccc2c(c1)[C@@]13CCCC[C@H]1[C@@H](C2)N(C)CC3 [DM, (+)-3-methoxy-N-methylmorphinan]",Metabolism of DM in ALS patients vs healthy adults,[1],No difference in the metabolism
same,"DM plasma level, with quinidine",[2]; 60 mg DM once oral + quinidine 150 mg,33 ng/mL and 29.7 ng/mL and 29.0 ng/mL and 28.8 ng/mL and 45.6 ng/mL
same,"DM plasma level, no quinidine","[2]; 120 mg/day DM oral, quinidine dose 0",9.3 ng/mL and 16.5 ng/mL and 6.05 ng/mL
same,Therapeutic benefits (emotional lability and dermatitis),[3],not detectable
same,Adverse side effects,[4],no ill effects
same,Reduction of emotional lability symptoms,[5],not observed in any patients who received DM alone
same,Slowing of progressive ALS symptoms,[6],"not able to slow down the progressive loss of strength, slurring of speech, and other muscular symptoms"
same,Activity at sigma receptors,[7],sigma agonists
same,Activity at NMDA receptors,[8],NMDA antagonists
same,Activity at neuronal calcium channels,[9]; listed as Dextromethorphan,suppress neural activity mediated by neuronal calcium channels
same,Activity at neuronal calcium channels,[9]; listed as dextromethorphan,calcium channel antagonists
same,Disappearance from the bloodstream,[10],disappears fairly rapidly from the bloodstream
same,Adverse effects (general knowledge),[11],any adverse effects (such as dizziness or nausea) usually disappear quickly when the dosage is lowered
same,"DM/DR ratio, no antioxidant",[12],0.02 and 0.00 and 0.06 and 0.03

# From patent US5366980A, “Use of dextromethorphan and an oxidase inhibitor to treat dermatitis” (priority 1993, dated 1994)
